# From PMC6268327 (2012)
# How the values were obtained:
# [1] = test system: p53 DNA (P1 promoter fragment duplex) (DNA, duplex) CCTCCTCCCCAACTCC/GGAGTTGGGGAGGAGG; test: fluorescence quenching titration (double-log plot); details: Tris-HCl buffer 100 mM (no metal cations given); 100 mM Tris-HCl, pH 7.4; 298 K; 1 μM compound; double-log fit, apparent
# [2] = test system: C-myc DNA (NHE III1 promoter fragment duplex) (DNA, duplex) GGGAGGGTGGGGAAGG/CCTTCCCCACCCTCCC; test: fluorescence quenching titration (double-log plot); details: Tris-HCl buffer 100 mM (no metal cations given); 100 mM Tris-HCl, pH 7.4; 298 K; 1 μM compound; double-log fit, apparent
Kb [1] [L/mol],Kb [2] [L/mol],SMILES
2040,1390,OCCCCc1ccc2ccc3cccc4ccc1c2c34
1.16e+06,404000,Oc1ccc2ccc3cccc4ccc1c2c34
